Reference: patent US20250140406A1, “CLASSIFYING TUMORS AND PREDICTING RESPONSIVENESS” (Oncocyte Corporation, priority 2022, published 2025)
Like-named read-outs stand apart in the source and are kept apart here.

Tests used:
[1] = tested on: NSCLC cell lines (xenograft models); conditions: of the 10 NSCLC cell lines, GSE109302; cited from earlier work
[2] = tested on: Representative Cell Lines of TNBC tumor subtypes; conditions: TNBC subtypes from Lehmann et al.; cited from earlier work
cancer cell lines = experiment: Correlation of gene expression with PRISM compound sensitivity across cell lines (gene:compound correlate pairs); type: cell-based; design: key: Pearson correlation of gene expression with compound sensitivity
Description: This list of genes (based upon gene expression and gene dependency) was analyzed by Pearson correlation with the compound sensitivity data across the training cell lines. Correlation values, p values, q values and local false discovery rates were calculated. This analysis was repeated using the same set of compounds and genes on the test set of cell lines.
A negative correlation means that the importance of the expression of that gene to cell health was linked to increased compound sensitivity. • compound gene dep train pvalue: Measure of significance for this association. • compound gene dep test corr: Correlation of gene dependency with compound sensitivity in the test data set. • TNBCType train: Classification of association of the compound sensitivity with the IM, MSL and M cell line classes in the training data set. • DTIO Corr train: Association of the compound sensitivity with the DetermaIO cell line classes in the training data set. • TNBCType test: Classification of the association of the compound sensitivity with the IM, MSL and M cell line classes in the test data set. • DTIO Corr test: Association of the compound sensitivity with the DetermaIO cell line classes in the test data set.

[3] = tested on: cancer cell lines classified IM, MSL, M; experiment: PRISM screen compound sensitivity correlated with IM, MSL and M subtype of cell lines (101 gene signature); type: cell-based; conditions: for TNBCType train: training cell set (371 cell lines), 101 gene signature
[4] = tested on: cancer cell lines, DetermaIO classes; experiment: Association of PRISM compound sensitivity with DetermaIO (DTIO) cell line classes; type: cell-based
[5] = tested on: cancer cell lines classified IM, MSL, M; experiment: Cancer Therapeutics Response Portal (CTRP) small-molecule sensitivity correlated with IM, MSL and M subtype; type: cell-based; conditions: CTRP and PRISM screens; IM class by 101 gene signature
Description: Compound correlations where the correlation was negative, indicating sensitivity to the compound, and with a q value less than 0.05 were assessed.

[6] = correlation of PRISM compound sensitivity with IM subtype correlation, test cell set (188 cell lines)
[7] = correlation of PRISM compound sensitivity with M subtype correlation, test cell set (188 cell lines)
[8] = correlation of PRISM compound sensitivity with MSL subtype correlation, test cell set (188 cell lines)
[9] = correlation of PRISM compound sensitivity with DTIO (DetermaIO), test cell set (188 cell lines)
[10] = correlation of PRISM compound sensitivity with DTIO (DetermaIO), training cell set (371 cell lines)
[11] = correlation of compound sensitivity with DetermaIO (DTIO), test set
[12] = correlation of compound sensitivity with DetermaIO (DTIO), training set
[13] = correlation of PRISM compound sensitivity with IM subtype correlation, test cell set
[14] = correlation of PRISM compound sensitivity with M subtype correlation, test cell set
[15] = correlation of PRISM compound sensitivity with MSL subtype correlation, test cell set
[16] = correlation of PRISM compound sensitivity with DTIO, test cell set
[17] = correlation of PRISM compound sensitivity with DTIO, training cell set

Compound: COc1cc(C(=O)NC2CCN(C)CC2)c(F)cc1Nc1ncc(C(F)(F)F)c(Oc2cccc3c2C(=O)N(C)C3)n1 [BI 853520]
- Number of NSCLC cell lines resistant to the drug [1]: five
- Number of NSCLC cell lines sensitive to the drug [1]: five

Compound: CC(O)(CS(=O)(=O)c1ccc(F)cc1)C(=O)Nc1ccc(C#N)c(C(F)(F)F)c1 (stereo not shown) [Bicalutimide]
- Tumor subtype whose representative cell lines respond to the treatment [2]: LAR

Compound: Cc1cc(CN2CCN(c3c(Br)cnc4nc(-c5ccc(N6CCN(C)CC6)cc5)[nH]c34)CC2)no1 [CCT137690]
- compound gene train corr (cancer cell lines): −0.1607
- IM Corr test [3, 6]: −0.03424
- M Corr test [3, 7]: −0.09289
- MSL Corr test [3, 8]: −0.02426

Compound: N.N.[Cl][Pt][Cl] [Cisplatin]
- Tumor subtype whose representative cell lines respond to the treatment [2]: BL1 and BL2

Compound: Cc1nc(Nc2ncc(C(=O)Nc3c(C)cccc3Cl)s2)cc(N2CCN(CCO)CC2)n1 [Dasantinib]
- Tumor subtype whose representative cell lines respond to the treatment [2]: M and MSL

Compound: Cn1c(=O)n(-c2ccc(C(C)(C)C#N)cc2)c2c3cc(-c4cnc5ccccc5c4)ccc3ncc21 [NVP-BEX235]
- Tumor subtype whose representative cell lines respond to the treatment [2]: M and MSL

Compound: COc1cc2c(NC3CCN(C(C)C)CC3)nc(N3CCC(F)(F)CC3)nc2cc1OCCCN1CCCC1 [UNC0642]
- compound gene test corr (cancer cell lines): −0.295
- compound gene train corr (cancer cell lines): −0.1787
- IM Corr test [3, 6]: −0.2049
- M Corr test [3, 7]: 0.1456
- MSL Corr test [3, 8]: 0.1789
- DTIO Corr test [4, 9]: −0.1219
- DTIO Corr train [4, 10]: −0.0704
- DTIO Corr test [4, 11]: −0.1219
- DTIO Corr train [4, 12]: −0.0704

Compound: CCOC(=O)c1ncc2[nH]c3ccc(OCc4ccccc4)cc3c2c1COC.Cl [ZK-93423]
- compound gene test corr (cancer cell lines): −0.2447
- compound gene train corr (cancer cell lines): −0.1712
- IM Corr test [3, 13]: 0.2068
- M Corr test [3, 14]: −0.1479
- MSL Corr test [3, 15]: −0.01274
- DTIO Corr test [4, 16]: 0.1767
- DTIO Corr train [4, 17]: 0.1098
- DTIO Corr test [4, 11]: 0.1767
- DTIO Corr train [4, 12]: 0.1098

Compound: Cc1occc(=O)c1[O-].Cc1occc(=O)c1[O-].[O]=[V+2] [bis(maltolato)oxovanadium(IV)]
- compound gene train corr (cancer cell lines): −0.1081

Compound: C=CC(=O)Nc1cc2c(Nc3ccc(F)c(Cl)c3)ncnc2cc1OCCCN1CCOCC1 [canertinib]
- Sensitivity of tumors of the IM class to the compound [5]: especially sensitive

Compound: CS(=O)(=O)CCNCc1ccc(-c2ccc3ncnc(Nc4ccc(OCc5cccc(F)c5)c(Cl)c4)c3c2)o1 [lapatinib]
- Sensitivity of tumors of the IM class to the compound [5]: especially sensitive

Compound: CC1(S(=O)(=O)[O-])CC(=O)c2ccccc2C1=O.[Na+] (stereo not shown) [menadione-bisulfite]
- compound gene test corr (cancer cell lines; gene CHL1, test cell lines): −0.2459
- compound gene train corr (cancer cell lines; gene CHL1, training cell lines): −0.1641
- compound gene test corr (cancer cell lines; gene COL19A1, test cell lines): −0.2615
- compound gene train corr (cancer cell lines; gene COL19A1, training cell lines): −0.2071
- compound gene test corr (cancer cell lines; gene DSTYK, test cell lines): −0.2853
- compound gene train corr (cancer cell lines; gene DSTYK, training cell lines): −0.1942
- compound gene test corr (cancer cell lines; gene FCGR2A, test cell lines): −0.2554
- compound gene train corr (cancer cell lines; gene FCGR2A, training cell lines): −0.1722
- compound gene test corr (cancer cell lines; gene FCRLA, test cell lines): −0.2647
- compound gene train corr (cancer cell lines; gene FCRLA, training cell lines): −0.2401
- compound gene test corr (cancer cell lines; gene GHR, test cell lines): −0.2974
- compound gene train corr (cancer cell lines; gene GHR, training cell lines): −0.1701
- compound gene test corr (cancer cell lines; gene LUM, test cell lines): −0.3259
- compound gene train corr (cancer cell lines; gene LUM, training cell lines): −0.1958
- compound gene test corr (cancer cell lines; gene LZTS1, test cell lines): −0.3133
- compound gene train corr (cancer cell lines; gene LZTS1, training cell lines): −0.1907
- compound gene test corr (cancer cell lines; gene NCKAP5L, test cell lines): −0.3161
- compound gene train corr (cancer cell lines; gene NCKAP5L, training cell lines): −0.1648
- compound gene test corr (cancer cell lines; gene P2RX7, test cell lines): −0.2585
- compound gene train corr (cancer cell lines; gene P2RX7, training cell lines): −0.2054
- compound gene test corr (cancer cell lines; gene PLEKHO1, test cell lines): −0.2511
- compound gene train corr (cancer cell lines; gene PLEKHO1, training cell lines): −0.1601
- compound gene test corr (cancer cell lines; gene PLEKHO2, test cell lines): −0.3003
- compound gene train corr (cancer cell lines; gene PLEKHO2, training cell lines): −0.2127
- compound gene test corr (cancer cell lines; gene PLP1, test cell lines): −0.2422
- compound gene train corr (cancer cell lines; gene PLP1, training cell lines): −0.2332
- compound gene test corr (cancer cell lines; gene PLPP7, test cell lines): −0.2843
- compound gene train corr (cancer cell lines; gene PLPP7, training cell lines): −0.1831
- compound gene test corr (cancer cell lines; gene QKI, test cell lines): −0.2736
- compound gene train corr (cancer cell lines; gene QKI, training cell lines): −0.2164
- compound gene test corr (cancer cell lines; gene SYNM, test cell lines): −0.2591
- compound gene train corr (cancer cell lines; gene SYNM, training cell lines): −0.1742
- compound gene test corr (cancer cell lines; gene TAMALIN, test cell lines): −0.254
- compound gene train corr (cancer cell lines; gene TAMALIN, training cell lines): −0.1641
- compound gene test corr (cancer cell lines; gene WWTR1, test cell lines): −0.2508
- compound gene train corr (cancer cell lines; gene WWTR1, training cell lines): −0.1794
- compound gene test corr (cancer cell lines; gene ZCCHC24, test cell lines): −0.3161
- compound gene train corr (cancer cell lines; gene ZCCHC24, training cell lines): −0.1708
- IM Corr test [3, 6]: 0.1925
- M Corr test [3, 7]: −0.2026
- MSL Corr test [3, 8]: −0.1086
- DTIO Corr test [4, 16]: 0.1362
- DTIO Corr train [4, 17]: 0.003549
- DTIO Corr test ([4]; test set): 0.1362
- DTIO Corr train ([4]; training set): 0.003549

Compound: PF-477736
- IM Corr test [3, 6]: 0.05795
- M Corr test [3, 7]: −0.1644
- MSL Corr test [3, 8]: −0.1066
- DTIO Corr test [4, 16]: −0.03209
- DTIO Corr train [4, 17]: −0.01779

Compound: Ro-25-6981
- IM Corr test [3, 13]: −0.1513
- M Corr test [3, 14]: 0.04707
- MSL Corr test [3, 15]: −0.0147
- DTIO Corr test [4, 16]: −0.1247
- DTIO Corr train [4, 17]: −0.07012

Compound: iodoquinol
- IM Corr test [3, 6]: 0.03942
- M Corr test [3, 7]: −0.09894
- MSL Corr test [3, 8]: −0.104
- TNBCType train ([3]; subtype (IM, MSL or M) assigned to the compound by negative correlation of PRISM sensitivity with subtype): MSL
- DTIO Corr test [4, 9]: 0.03163
- DTIO Corr train [4, 10]: −0.06766

Compound: repsox
- IM Corr test [3]: −0.07924
- M Corr test [3]: 0.1062
- MSL Corr test [3]: 0.08697
- DTIO Corr test [4]: −0.03254
- DTIO Corr train [4]: −0.05665

Compound: salvianolic-acid-B
- IM Corr test [3, 6]: 0.001211
- M Corr test [3, 7]: −0.08646
- MSL Corr test [3, 8]: −0.06128
- TNBCType train ([3]; subtype (IM, MSL or M) with which compound sensitivity is negatively correlated): MSL
- DTIO Corr test [4, 16]: 0.002256
- DTIO Corr train [4, 17]: −0.1092
